Patent US10710978B2, “STK4 inhibitors for treatment of hematologic malignancies” (Dana-Farber Cancer Institute, Inc., priority 2015, dated 2020)
Where two headings read alike, the source gives them in different places.

How the values were obtained:
Experiment in all cases: KiNativ assay
Assay type in all cases: binding
Conditions in all cases: H929 live cell
[1] = target: SLK (Homo sapiens (Human), UniProt Q9H2G2)
Description: (§1) Biochemical IC50s of the compounds of the present disclosure against various kinases were measured in a KiNativ assay. Compounds were screened in duplicate at 10 μM in H929 live cell. IC50 was measured via Mass spectroscopy (MS).

[2] = target: MAP3K5 (Homo sapiens (Human), UniProt Q99683)
Description: as §1

[3] = tested on: MAP3K2, MAP3K3
Description: as §1

[4] = tested on: ABL, ARG
Description: as §1

[5] = target: MAP3K2 (Homo sapiens (Human), UniProt Q9Y2U5)
Description: as §1

[6] = target: RSK2 domain2 (Homo sapiens (Human), UniProt P51812)
Description: as §1

[7] = tested on: MAPKAPK2, MAPKAPK3
Description: as §1

[8] = target: IRE1 (Homo sapiens (Human), UniProt O75460)
Description: as §1

[9] = tested on: CaMK2a, CaMK2b, CaMK2d, CaMK2g
Description: as §1

[10] = target: IRAK4 (Homo sapiens (Human), UniProt Q9NWZ3)
Chain of IRAK4 (Q9NWZ3 whole entry): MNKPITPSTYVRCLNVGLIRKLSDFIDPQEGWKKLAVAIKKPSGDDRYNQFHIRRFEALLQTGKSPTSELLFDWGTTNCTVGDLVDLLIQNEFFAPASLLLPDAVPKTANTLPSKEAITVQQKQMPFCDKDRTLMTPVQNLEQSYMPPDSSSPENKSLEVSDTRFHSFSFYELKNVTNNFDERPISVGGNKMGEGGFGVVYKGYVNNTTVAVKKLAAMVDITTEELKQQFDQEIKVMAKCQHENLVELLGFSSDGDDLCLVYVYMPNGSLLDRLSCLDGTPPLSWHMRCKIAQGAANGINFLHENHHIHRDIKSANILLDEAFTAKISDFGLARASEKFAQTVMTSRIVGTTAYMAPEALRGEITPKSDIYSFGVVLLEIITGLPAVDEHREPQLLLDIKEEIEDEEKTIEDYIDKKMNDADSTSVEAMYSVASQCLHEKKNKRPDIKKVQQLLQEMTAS
Description: as §1

[11] = target: STLK5 (Homo sapiens (Human), UniProt Q7RTN6)
Description: as §1

[12] = target: CHK2 (Homo sapiens (Human), UniProt O96017)
Description: as §1

[13] = target: MLK3 (Homo sapiens (Human), UniProt Q16584)
Chain of MLK3 (Q16584 whole entry): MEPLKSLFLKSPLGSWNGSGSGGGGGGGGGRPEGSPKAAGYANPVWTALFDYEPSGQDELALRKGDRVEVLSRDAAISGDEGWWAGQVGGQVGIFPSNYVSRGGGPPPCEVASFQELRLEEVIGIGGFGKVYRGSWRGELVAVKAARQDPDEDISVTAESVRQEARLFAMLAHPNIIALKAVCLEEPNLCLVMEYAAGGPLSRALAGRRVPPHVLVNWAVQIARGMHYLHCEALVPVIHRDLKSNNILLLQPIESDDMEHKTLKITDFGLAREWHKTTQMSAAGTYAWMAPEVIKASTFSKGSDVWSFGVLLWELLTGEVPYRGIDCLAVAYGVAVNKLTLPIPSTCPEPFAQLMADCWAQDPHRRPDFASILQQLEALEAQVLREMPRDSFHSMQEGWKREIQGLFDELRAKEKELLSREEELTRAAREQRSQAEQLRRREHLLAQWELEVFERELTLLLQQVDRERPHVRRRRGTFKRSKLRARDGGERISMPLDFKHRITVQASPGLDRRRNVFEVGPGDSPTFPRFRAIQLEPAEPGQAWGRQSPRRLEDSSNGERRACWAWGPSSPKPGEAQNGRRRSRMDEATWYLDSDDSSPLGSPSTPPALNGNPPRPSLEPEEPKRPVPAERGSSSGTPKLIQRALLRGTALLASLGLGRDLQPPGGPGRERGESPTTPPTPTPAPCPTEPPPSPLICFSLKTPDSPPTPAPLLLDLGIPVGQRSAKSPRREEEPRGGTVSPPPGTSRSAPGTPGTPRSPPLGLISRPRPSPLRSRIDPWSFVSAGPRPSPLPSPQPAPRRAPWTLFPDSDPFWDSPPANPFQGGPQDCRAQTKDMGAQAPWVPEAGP
Description: as §1

[14] = target: CDK2 (Homo sapiens (Human), UniProt P24941)
Description: as §1

[15] = target: IKKb (Homo sapiens (Human), UniProt O14920)
Description: as §1

[16] = target: PKN1 (Homo sapiens (Human), UniProt Q16512)
Description: as §1

[17] = target: PKD2 (Homo sapiens (Human), UniProt Q9BZL6)
Description: as §1

[18] = target: ILK (Homo sapiens (Human), UniProt Q13418)
Chain of ILK (Q13418 whole entry): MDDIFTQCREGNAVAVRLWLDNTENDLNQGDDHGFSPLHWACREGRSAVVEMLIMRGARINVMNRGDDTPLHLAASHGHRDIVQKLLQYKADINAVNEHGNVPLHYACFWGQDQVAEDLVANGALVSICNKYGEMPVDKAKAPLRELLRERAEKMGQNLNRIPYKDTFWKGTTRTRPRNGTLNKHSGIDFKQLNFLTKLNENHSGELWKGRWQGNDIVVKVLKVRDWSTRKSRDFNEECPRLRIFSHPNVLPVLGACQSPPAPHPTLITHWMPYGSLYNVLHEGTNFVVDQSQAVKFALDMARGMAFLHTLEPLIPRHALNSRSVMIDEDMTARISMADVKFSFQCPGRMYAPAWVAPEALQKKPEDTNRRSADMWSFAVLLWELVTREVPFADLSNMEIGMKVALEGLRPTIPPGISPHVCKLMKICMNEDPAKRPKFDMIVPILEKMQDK
Description: as §1

[19] = target: ULK1 (Homo sapiens (Human), UniProt O75385)
Description: as §1

[20] = target: NEK4 (Homo sapiens (Human), UniProt P51957)
Description: as §1

[21] = target: KHS1 (Homo sapiens (Human), UniProt Q9Y4K4)
Chain of KHS1 (Q9Y4K4 whole entry): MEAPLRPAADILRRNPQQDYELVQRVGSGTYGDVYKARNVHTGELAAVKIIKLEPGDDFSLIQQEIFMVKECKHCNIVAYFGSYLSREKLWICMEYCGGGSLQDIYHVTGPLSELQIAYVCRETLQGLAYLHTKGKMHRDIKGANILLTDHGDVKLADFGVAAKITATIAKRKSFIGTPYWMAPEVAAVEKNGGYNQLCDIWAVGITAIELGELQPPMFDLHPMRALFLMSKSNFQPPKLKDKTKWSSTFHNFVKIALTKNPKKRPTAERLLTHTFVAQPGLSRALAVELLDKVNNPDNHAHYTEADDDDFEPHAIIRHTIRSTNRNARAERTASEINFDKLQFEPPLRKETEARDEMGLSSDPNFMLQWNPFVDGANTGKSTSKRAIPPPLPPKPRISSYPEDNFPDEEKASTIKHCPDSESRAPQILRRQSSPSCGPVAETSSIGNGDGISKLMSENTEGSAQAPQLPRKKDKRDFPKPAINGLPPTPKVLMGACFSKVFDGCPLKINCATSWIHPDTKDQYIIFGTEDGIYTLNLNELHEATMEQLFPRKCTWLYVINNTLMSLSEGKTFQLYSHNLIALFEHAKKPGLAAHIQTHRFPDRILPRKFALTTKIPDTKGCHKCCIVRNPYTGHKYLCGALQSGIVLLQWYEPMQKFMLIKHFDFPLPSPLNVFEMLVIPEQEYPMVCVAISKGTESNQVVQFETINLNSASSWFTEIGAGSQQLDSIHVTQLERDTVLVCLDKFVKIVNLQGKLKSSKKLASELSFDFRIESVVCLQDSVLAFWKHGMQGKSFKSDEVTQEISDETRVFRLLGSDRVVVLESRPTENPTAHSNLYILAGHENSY
Description: as §1

[22] = target: NEK1 (Homo sapiens (Human), UniProt Q96PY6)
Description: as §1

[23] = tested on: MARK1, MARK2
Description: as §1

[24] = target: JAK1 domain2 (Homo sapiens (Human), UniProt P23458)
Description: as §1

[25] = target: TAO2 (Homo sapiens (Human), UniProt Q9UL54)
Description: as §1

[26] = target: PI4KB (Homo sapiens (Human), UniProt Q9UBF8)
Description: as §1

[27] = target: CaMK2g (Homo sapiens (Human), UniProt Q13555)
Description: as §1

[28] = tested on: ZC1/HGK, ZC2/TNIK, ZC3/MINK
Description: as §1

[29] = target: PIP5K3 (Homo sapiens (Human), UniProt Q9Y2I7)
Chain of PIP5K3 (Q9Y2I7 whole entry): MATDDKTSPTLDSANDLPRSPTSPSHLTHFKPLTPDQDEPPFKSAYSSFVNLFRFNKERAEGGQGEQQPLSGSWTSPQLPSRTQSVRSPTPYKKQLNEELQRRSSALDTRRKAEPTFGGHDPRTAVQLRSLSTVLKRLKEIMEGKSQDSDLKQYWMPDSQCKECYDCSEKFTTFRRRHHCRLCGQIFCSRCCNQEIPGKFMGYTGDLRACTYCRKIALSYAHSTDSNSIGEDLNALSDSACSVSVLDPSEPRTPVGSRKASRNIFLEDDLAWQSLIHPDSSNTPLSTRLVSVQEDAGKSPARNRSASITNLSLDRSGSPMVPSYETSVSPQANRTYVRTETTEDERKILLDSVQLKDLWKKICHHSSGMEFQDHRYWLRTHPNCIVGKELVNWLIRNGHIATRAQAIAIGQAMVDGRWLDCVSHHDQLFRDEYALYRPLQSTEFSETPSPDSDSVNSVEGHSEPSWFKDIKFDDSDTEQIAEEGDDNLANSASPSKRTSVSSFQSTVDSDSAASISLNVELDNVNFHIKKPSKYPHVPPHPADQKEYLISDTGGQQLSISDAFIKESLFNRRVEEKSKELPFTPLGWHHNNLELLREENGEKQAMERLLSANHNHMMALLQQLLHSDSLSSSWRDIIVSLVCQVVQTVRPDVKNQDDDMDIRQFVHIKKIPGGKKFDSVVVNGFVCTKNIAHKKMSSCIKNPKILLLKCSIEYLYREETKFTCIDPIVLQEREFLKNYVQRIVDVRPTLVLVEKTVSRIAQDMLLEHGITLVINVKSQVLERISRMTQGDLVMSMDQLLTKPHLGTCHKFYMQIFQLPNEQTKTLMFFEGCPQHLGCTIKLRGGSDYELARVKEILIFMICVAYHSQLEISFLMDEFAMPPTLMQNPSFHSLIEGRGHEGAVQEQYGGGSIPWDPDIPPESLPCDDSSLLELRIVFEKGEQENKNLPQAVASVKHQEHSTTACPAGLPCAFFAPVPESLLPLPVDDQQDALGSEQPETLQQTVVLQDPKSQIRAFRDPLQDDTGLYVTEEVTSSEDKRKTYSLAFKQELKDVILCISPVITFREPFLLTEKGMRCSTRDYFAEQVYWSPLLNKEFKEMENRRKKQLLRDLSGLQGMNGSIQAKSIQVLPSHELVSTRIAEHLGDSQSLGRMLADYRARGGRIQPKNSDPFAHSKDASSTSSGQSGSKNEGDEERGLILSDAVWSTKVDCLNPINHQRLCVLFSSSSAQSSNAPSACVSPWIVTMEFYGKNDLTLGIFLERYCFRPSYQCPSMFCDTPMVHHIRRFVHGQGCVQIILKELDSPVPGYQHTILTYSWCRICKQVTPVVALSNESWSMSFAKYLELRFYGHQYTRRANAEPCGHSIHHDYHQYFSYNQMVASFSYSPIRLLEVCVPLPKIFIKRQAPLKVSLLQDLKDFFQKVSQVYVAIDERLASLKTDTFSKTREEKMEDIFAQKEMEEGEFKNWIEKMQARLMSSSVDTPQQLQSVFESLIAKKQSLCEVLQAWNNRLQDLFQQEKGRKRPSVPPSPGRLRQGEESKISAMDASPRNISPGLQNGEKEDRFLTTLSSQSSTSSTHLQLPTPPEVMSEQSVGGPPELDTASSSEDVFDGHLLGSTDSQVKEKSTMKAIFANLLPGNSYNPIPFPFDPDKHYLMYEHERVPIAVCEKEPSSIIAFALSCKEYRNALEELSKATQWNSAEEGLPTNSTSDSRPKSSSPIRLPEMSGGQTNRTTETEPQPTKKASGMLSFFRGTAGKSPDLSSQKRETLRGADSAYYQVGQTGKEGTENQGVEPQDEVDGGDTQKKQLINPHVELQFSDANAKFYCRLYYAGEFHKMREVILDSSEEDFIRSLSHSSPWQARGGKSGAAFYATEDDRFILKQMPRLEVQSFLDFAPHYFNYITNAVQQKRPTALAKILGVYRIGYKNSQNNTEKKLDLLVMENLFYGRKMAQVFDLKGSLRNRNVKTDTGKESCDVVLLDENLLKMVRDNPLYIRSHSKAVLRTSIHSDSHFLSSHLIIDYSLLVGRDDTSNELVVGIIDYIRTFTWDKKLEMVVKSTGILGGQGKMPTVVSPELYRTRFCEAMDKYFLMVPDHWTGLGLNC
Description: as §1

[30] = target: JAK1 domain1 (Homo sapiens (Human), UniProt P23458)
Description: as §1

[31] = target: BRAF (Homo sapiens (Human), UniProt P15056)
Description: as §1

[32] = target: CaMK1d (Homo sapiens (Human), UniProt Q8IU85)
Chain of CaMK1d (Q8IU85 whole entry): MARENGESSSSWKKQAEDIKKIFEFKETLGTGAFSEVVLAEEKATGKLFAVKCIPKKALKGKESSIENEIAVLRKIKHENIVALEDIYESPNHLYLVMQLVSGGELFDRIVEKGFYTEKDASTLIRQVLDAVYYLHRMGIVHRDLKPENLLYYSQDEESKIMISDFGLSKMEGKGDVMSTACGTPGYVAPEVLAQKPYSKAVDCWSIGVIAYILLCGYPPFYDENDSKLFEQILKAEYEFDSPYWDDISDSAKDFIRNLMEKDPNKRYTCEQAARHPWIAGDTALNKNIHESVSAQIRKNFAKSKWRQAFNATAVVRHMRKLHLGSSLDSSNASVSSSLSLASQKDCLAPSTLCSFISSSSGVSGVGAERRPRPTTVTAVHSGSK
Description: as §1

[33] = tested on: KSR1, KSR2
Description: as §1

[34] = target: LKB1 (Homo sapiens (Human), UniProt Q15831)
Description: as §1

For `CN(C1CC1)S(=O)(=O)c1ccc(-c2cnc(N)c(-c3ccc4c(c3)CCNC4=O)c2)c(F)c1` [Compound I-28, 4-(6-amino-5-(1-oxo-1,2,3,4-tetrahydroisoquinolin-6-yl)pyridin-3-yl)-N-cyclopropyl-3-fluoro-N-methylbenzenesulfonamide], the inhibition at 10 µM ([1]; read-out: % inhibition (range)) was 50 to 75%, the inhibition at 10 µM ([1]; read-out: inhibition (10 μM)) was 58.9% and the inhibition at 10 µM ([2]; read-out: % inhibition (range)) was 0%. The inhibition at 10 µM ([2]; read-out: inhibition (10 μM)) was -6.2%, the “% inhibition (range)” value ([3]; 10 μM) was 0.0% and the “inhibition (10 μM)” value [3] was 33.8%. For the same molecule, the “% inhibition (range)” value ([4]; 10 μM) was 0.0%, the “inhibition (10 μM)” value [4] was 13.3% and the inhibition at 10 µM ([5]; read-out: % inhibition (range)) was 0%. It also gave an inhibition at 10 µM ([5]; read-out: inhibition (10 μM)) of 7%, an inhibition at 10 µM ([6]; read-out: % inhibition (range)) of 0% and an inhibition at 10 µM ([6]; read-out: inhibition (10 μM)) of -20%. The “% inhibition (range)” value ([7]; 10 μM) was 0.0%, the “inhibition (10 μM)” value [7] was −5.0% and the inhibition at 10 µM ([8]; read-out: % inhibition (range)) was 0%. For the same molecule, the inhibition at 10 µM ([8]; read-out: inhibition (10 μM)) was -34.1%, the “% inhibition (range)” value ([9]; 10 μM) was 0.0% and the “inhibition (10 μM)” value [9] was 1.4%. It also gave an inhibition at 10 µM ([10]; read-out: % inhibition (range)) of 0%, an inhibition at 10 µM ([10]; read-out: inhibition (10 μM)) of -0.7% and an inhibition at 10 µM ([11]; read-out: % inhibition (range)) of 0%. For the same molecule, the inhibition at 10 µM ([11]; read-out: inhibition (10 μM)) was 6.3%, the inhibition at 10 µM ([12]; read-out: % inhibition (range)) was 0% and the inhibition at 10 µM ([12]; read-out: inhibition (10 μM)) was 6.8%. It also gave an inhibition at 10 µM ([13]; read-out: % inhibition (range)) of 0%, an inhibition at 10 µM ([13]; read-out: inhibition (10 μM)) of 11.7% and an inhibition at 10 µM ([14]; read-out: % inhibition (range)) of 0%. It also gave an inhibition at 10 µM ([14]; read-out: inhibition (10 μM)) of 27.6%, an inhibition at 10 µM ([15]; read-out: % inhibition (range)) of 0% and an inhibition at 10 µM ([15]; read-out: inhibition (10 μM)) of 6.8%. The inhibition at 10 µM ([16]; read-out: % inhibition (range)) was 35 to 50%, the inhibition at 10 µM ([16]; read-out: inhibition (10 μM)) was 40.5% and the inhibition at 10 µM ([17]; read-out: % inhibition (range)) was 35 to 50%. The inhibition at 10 µM ([17]; read-out: inhibition (10 μM)) was 38.9%, the inhibition at 10 µM ([18]; read-out: % inhibition (range)) was 0% and the inhibition at 10 µM ([18]; read-out: inhibition (10 μM)) was -5.8%. For the same molecule, the inhibition at 10 µM ([19]; read-out: % inhibition (range)) was 0%, the inhibition at 10 µM ([19]; read-out: inhibition (10 μM)) was -54.6% and the inhibition at 10 µM ([20]; read-out: % inhibition (range)) was 0%. It also gave an inhibition at 10 µM ([20]; read-out: inhibition (10 μM)) of -2.8%, an inhibition at 10 µM ([21]; read-out: % inhibition (range)) of 75 to 90% and an inhibition at 10 µM ([21]; read-out: inhibition (10 μM)) of 75.6%. The inhibition at 10 µM ([22]; read-out: % inhibition (range)) was 0%, the inhibition at 10 µM ([22]; read-out: inhibition (10 μM)) was -14.1% and the “% inhibition (range)” value ([23]; 10 μM) was 0.0%. The “inhibition (10 μM)” value [23] was −1.3%, the inhibition at 10 µM ([24]; read-out: % inhibition (range)) was 0% and the inhibition at 10 µM ([24]; read-out: inhibition (10 μM)) was -33.7%. It also gave an inhibition at 10 µM ([25]; read-out: % inhibition (range)) of 50 to 75%, an inhibition at 10 µM ([25]; read-out: inhibition (10 μM)) of 61.5% and an inhibition at 10 µM ([26]; read-out: % inhibition (range)) of 0%. For the same molecule, the inhibition at 10 µM ([26]; read-out: inhibition (10 μM)) was 16.7%, the inhibition at 10 µM ([27]; read-out: % inhibition (range)) was 0% and the inhibition at 10 µM ([27]; read-out: inhibition (10 μM)) was -13%. For the same molecule, the “% inhibition (range)” value ([28]; 10 μM) was greater than 90%, the “inhibition (10 μM)” value [28] was 94.5% and the inhibition at 10 µM ([29]; read-out: % inhibition (range)) was 75 to 90%. It also gave an inhibition at 10 µM ([29]; read-out: inhibition (10 μM)) of 83.4%, an inhibition at 10 µM ([30]; read-out: % inhibition (range)) of 0% and an inhibition at 10 µM ([30]; read-out: inhibition (10 μM)) of -38.6%. For the same molecule, the inhibition at 10 µM ([31]; read-out: % inhibition (range)) was 0%, the inhibition at 10 µM ([31]; read-out: inhibition (10 μM)) was -4.6% and the inhibition at 10 µM ([32]; read-out: % inhibition (range)) was 0%. For the same molecule, the inhibition at 10 µM ([32]; read-out: inhibition (10 μM)) was 15.2%, the “% inhibition (range)” value ([33]; 10 μM) was 0.0% and the “inhibition (10 μM)” value [33] was −14.5%. The inhibition at 10 µM ([34]; read-out: % inhibition (range)) was 0% and the inhibition at 10 µM ([34]; read-out: inhibition (10 μM)) was -0.6%.
